According to patent publication US10952433B2, “Solutions for enhancing the effectiveness of insecticides and fungicides on living plants and related methods” (priority 2015, dated 2021):

Columns and labels:
[1] = system: staining fungi (macerated fungal blend); assay: Staining fungi coverage in inoculated stem wound of red oak seedlings, greenhouse (Table 6)
Experimental: In performing the tests employing ten red oak seedlings per iteration with the materials being tested applied at approximately 12 milliliters per seeding applied with a low volume hand spray. […] Seven days after application, a sterile razor blade wound of approximately 2 millimeters by 10 millimeters was created on each seedling stem. Immediately after, the wounding 1 ml of macerated fungal blend suspended in distilled water was applied to each stem wound. Twenty-eight days after wounding, the wounds were evaluated for an average percentage of staining fungi present in each seedling stem wound. Opaque black straw covering was applied to each wound. The opaque black straws were applied within about one minute after wounding and inoculation with the fungi. […] The purpose for using such straws is to facilitate the creation of a dark environment on the wound as fungi tend to like dark damp places. This is employed to enhance the effectiveness of the test by accelerating the severity of the fungal growing conditions. Each stem wound was given two ml of distilled water 10, 17, 21 and 28 days after wounding by a low volume trigger spray. All solutions were included a propylene glycol based dye at a concentration of 100:1. The greenhouse conditions were maintained at 65° F. to 85° F. and the humidity range of 30 to 80% relative humidity. The test which employed the combination of thiabendazole, fludioxonil and azoxystrobin was obtained as a formulated pesticide product which was available under the trade designation “Sporgard”.
The final column is a numerical grade which represents the percent of staining fungi coverage in percentage in the stem wound of the red oak seedlings as measured on day 28.

[2] = system: staining fungi of the ceratocystis variety; assay: Staining fungi in stem wound of white oak seedlings after trunk spray (Table 4); type: in vivo, ceratocystis (on white oak seedlings)
Experimental: Fourteen days after the stem wounding, wounds were examined for the presence of staining fungi. In creating these for solution were used the buffer and amine oxides were added to the dilute solution of fungicide.
Referring to TABLE 4 wherein a commonly used fungicide, Propiconazole was employed in tests in the amount of 50:200 PPM (parts per million) employed with and without buffered amine oxides systems 3 and 4 with some of the tests employing the 12 carbon length and others, the 1218 carbon mixture. In a preferred embodiment in 1218 on a weight basis, the 12 carbon length will be present in an amount of about 1.3 to 2.0 times the amount of 18 carbon length and in the preferred range about 1.5 to 1.8 times the amount of 18 carbon length. The tests were performed on white oak seedlings which were provided with a stem wound in which was introduced staining fungi which was of the ceratocystis variety.
The method of testing the materials was to spray the trunk of the seedling with the particular solution being tested and 7 days after such application, creating a wound of approximately 2 millimeters by 10 millimeters on each seedling stem. Fourteen days after the wounding, the wounds were examined for the presence of staining fungi.

[3] = fungicide + Amine Oxide 12 (No Buffer) 200:1, PPM: Thiabendazole/Fludioxonil/Azoxystrobin 160, Chlorothalonil 1235, Propiconazole 102, Mancozeb 1097, Vinclozolin 122, Mefenoxam 20
[4] = fungicide + Amine Oxide 1218 (No Buffer) 200:1, PPM: Thiabendazole/Fludioxonil/Azoxystrobin 160, Chlorothalonil 1235, Propiconazole 103, Mancozeb 1097, Vinclozolin 122, Mefenoxam 20
[5] = fungicide + Buffer System 3 200:1, no amine oxide, PPM: Thiabendazole/Fludioxonil/Azoxystrobin 160, Chlorothalonil 1235, Propiconazole 101, Mancozeb 1097, Vinclozolin 122, Mefenoxam 20
[6] = fungicide + buffered amine oxide, Buffer System 3, amine oxide 12, 200:1, PPM: Thiabendazole/Fludioxonil/Azoxystrobin 160, Chlorothalonil 1235, Propiconazole 105, Mancozeb 1097, Vinclozolin 122, Mefenoxam 20
[7] = fungicide + buffered amine oxide, Buffer System 3, amine oxide 1218, 200:1, PPM: Thiabendazole/Fludioxonil/Azoxystrobin 160, Chlorothalonil 1235, Propiconazole 107, Mancozeb 1097, Vinclozolin 122, Mefenoxam 20
[8] = fungicide alone, highest amount, PPM: Thiabendazole/Fludioxonil/Azoxystrobin 640, Chlorothalonil 4940, Propiconazole 400, Mancozeb 4388, Vinclozolin 488, Mefenoxam 80
[9] = fungicide alone, increased amount, PPM: Thiabendazole/Fludioxonil/Azoxystrobin 320, Chlorothalonil 2470, Propiconazole 200, Mancozeb 2194, Vinclozolin 244, Mefenoxam 40
[10] = fungicide alone, PPM: Thiabendazole/Fludioxonil/Azoxystrobin 160, Chlorothalonil 1235, Propiconazole 100, Mancozeb 1097, Vinclozolin 122, Mefenoxam 20

N#Cc1c(Cl)c(Cl)c(Cl)c(C#N)c1Cl [Chlorothalonil]
Percent of Staining Fungi Coverage Average (%) in Stem Wound of Red Oak Seedlings (Day 28) [1, 3]: 64%
Percent of Staining Fungi Coverage Average (%) in Stem Wound of Red Oak Seedlings (Day 28) [1, 4]: 55%
Percent of Staining Fungi Coverage Average (%) in Stem Wound of Red Oak Seedlings (Day 28) [1, 5]: 72%
Percent of Staining Fungi Coverage Average (%) in Stem Wound of Red Oak Seedlings (Day 28) [1, 6]: 27%
Percent of Staining Fungi Coverage Average (%) in Stem Wound of Red Oak Seedlings (Day 28) [1, 7]: 33%
Percent of Staining Fungi Coverage Average (%) in Stem Wound of Red Oak Seedlings (Day 28) [1, 8]: 37%
Percent of Staining Fungi Coverage Average (%) in Stem Wound of Red Oak Seedlings (Day 28) [1, 9]: 49%
Percent of Staining Fungi Coverage Average (%) in Stem Wound of Red Oak Seedlings (Day 28) [1, 10]: 91%

COCC(=O)N(c1c(C)cccc1C)[C@H](C)C(=O)OC [Mefenoxam]
Percent of Staining Fungi Coverage Average (%) in Stem Wound of Red Oak Seedlings (Day 28) [1, 3]: 38%
Percent of Staining Fungi Coverage Average (%) in Stem Wound of Red Oak Seedlings (Day 28) [1, 4]: 25%
Percent of Staining Fungi Coverage Average (%) in Stem Wound of Red Oak Seedlings (Day 28) [1, 5]: 52%
Percent of Staining Fungi Coverage Average (%) in Stem Wound of Red Oak Seedlings (Day 28) [1, 6]: 16%
Percent of Staining Fungi Coverage Average (%) in Stem Wound of Red Oak Seedlings (Day 28) [1, 7]: 21%
Percent of Staining Fungi Coverage Average (%) in Stem Wound of Red Oak Seedlings (Day 28) [1, 8]: 23%
Percent of Staining Fungi Coverage Average (%) in Stem Wound of Red Oak Seedlings (Day 28) [1, 9]: 42%
Percent of Staining Fungi Coverage Average (%) in Stem Wound of Red Oak Seedlings (Day 28) [1, 10]: 64%

CCCC1COC(Cn2cncn2)(c2ccc(Cl)cc2Cl)O1 (stereo not drawn) [Propiconazole]
Percent of Seedlings with Staining Fungi in Stem Wound of White Oak ([2]; Propiconazole 50 PPM + buffered amine oxide system 3, amine oxide 12, 200:1): 0%
Percent of Seedlings with Staining Fungi in Stem Wound of White Oak ([2]; Propiconazole 50 PPM + buffered amine oxide system 3, amine oxide 12, 400:1): 20%
Percent of Seedlings with Staining Fungi in Stem Wound of White Oak ([2]; Propiconazole 50 PPM + buffered amine oxide system 3, amine oxide 1218, 200:1): 0%
Percent of Seedlings with Staining Fungi in Stem Wound of White Oak ([2]; Propiconazole 50 PPM + buffered amine oxide system 3, amine oxide 1218, 400:1): 0%
Percent of Seedlings with Staining Fungi in Stem Wound of White Oak ([2]; Propiconazole 50 PPM + buffered amine oxide system 4, amine oxide 12, 200:1): 0%
Percent of Seedlings with Staining Fungi in Stem Wound of White Oak ([2]; Propiconazole 50 PPM + buffered amine oxide system 4, amine oxide 12, 400:1): 20%
Percent of Seedlings with Staining Fungi in Stem Wound of White Oak ([2]; Propiconazole 50 PPM + buffered amine oxide system 4, amine oxide 1218, 200:1): 0%
Percent of Seedlings with Staining Fungi in Stem Wound of White Oak ([2]; Propiconazole 50 PPM + buffered amine oxide system 4, amine oxide 1218, 400:1): 0%
Percent of Seedlings with Staining Fungi in Stem Wound of White Oak ([2]; Propiconazole 50 PPM alone, 14 days after wounding): 100%
Percent of Seedlings with Staining Fungi in Stem Wound of White Oak ([2]; Propiconazole 100 PPM alone, 14 days after wounding): 80%
Percent of Seedlings with Staining Fungi in Stem Wound of White Oak ([2]; Propiconazole 200 PPM alone, 14 days after wounding): 20%
Percent of Staining Fungi Coverage Average (%) in Stem Wound of Red Oak Seedlings (Day 28) [1, 3]: 43%
Percent of Staining Fungi Coverage Average (%) in Stem Wound of Red Oak Seedlings (Day 28) [1, 4]: 55%
Percent of Staining Fungi Coverage Average (%) in Stem Wound of Red Oak Seedlings (Day 28) [1, 5]: 74%
Percent of Staining Fungi Coverage Average (%) in Stem Wound of Red Oak Seedlings (Day 28) [1, 6]: 20%
Percent of Staining Fungi Coverage Average (%) in Stem Wound of Red Oak Seedlings (Day 28) [1, 7]: 44%
Percent of Staining Fungi Coverage Average (%) in Stem Wound of Red Oak Seedlings (Day 28) [1, 8]: 33%
Percent of Staining Fungi Coverage Average (%) in Stem Wound of Red Oak Seedlings (Day 28) [1, 9]: 81%
Percent of Staining Fungi Coverage Average (%) in Stem Wound of Red Oak Seedlings (Day 28) [1, 10]: 85%

C=CC1(C)OC(=O)N(c2cc(Cl)cc(Cl)c2)C1=O (stereo not drawn) [Vinclozolin]
Percent of Staining Fungi Coverage Average (%) in Stem Wound of Red Oak Seedlings (Day 28) [1, 3]: 32%
Percent of Staining Fungi Coverage Average (%) in Stem Wound of Red Oak Seedlings (Day 28) [1, 4]: 16%
Percent of Staining Fungi Coverage Average (%) in Stem Wound of Red Oak Seedlings (Day 28) [1, 5]: 49%
Percent of Staining Fungi Coverage Average (%) in Stem Wound of Red Oak Seedlings (Day 28) [1, 6]: 17%
Percent of Staining Fungi Coverage Average (%) in Stem Wound of Red Oak Seedlings (Day 28) [1, 7]: 38%
Percent of Staining Fungi Coverage Average (%) in Stem Wound of Red Oak Seedlings (Day 28) [1, 8]: 15%
Percent of Staining Fungi Coverage Average (%) in Stem Wound of Red Oak Seedlings (Day 28) [1, 9]: 21%
Percent of Staining Fungi Coverage Average (%) in Stem Wound of Red Oak Seedlings (Day 28) [1, 10]: 43%

Mancozeb
Percent of Staining Fungi Coverage Average (%) in Stem Wound of Red Oak Seedlings (Day 28) [1, 3]: 58%
Percent of Staining Fungi Coverage Average (%) in Stem Wound of Red Oak Seedlings (Day 28) [1, 4]: 30%
Percent of Staining Fungi Coverage Average (%) in Stem Wound of Red Oak Seedlings (Day 28) [1, 5]: 67%
Percent of Staining Fungi Coverage Average (%) in Stem Wound of Red Oak Seedlings (Day 28) [1, 6]: 24%
Percent of Staining Fungi Coverage Average (%) in Stem Wound of Red Oak Seedlings (Day 28) [1, 7]: 30%
Percent of Staining Fungi Coverage Average (%) in Stem Wound of Red Oak Seedlings (Day 28) [1, 8]: 22%
Percent of Staining Fungi Coverage Average (%) in Stem Wound of Red Oak Seedlings (Day 28) [1, 9]: 35%
Percent of Staining Fungi Coverage Average (%) in Stem Wound of Red Oak Seedlings (Day 28) [1, 10]: 74%
